Results: patent US8063021B2, “Ketolide anti-infective compounds” (Kosan Biosciences Incorporated, priority 2003, dated 2011)
Read-outs that look alike come from different tables or passages of the source.

What was measured:
S. aureus ATCC 29213 = test: microdilution assay MIC, S. aureus ATCC 29213; assay type: cell-based, Staphylococcus aureus; details: S. aureus ATCC 29213, erythromycin sensitive strain, average where multiple assays
Method: (§1) In Table B, in some instances multiple assays were performed for a compound/strain combination, in which case the reported MIC is the average. S. pneumoniae ATCC 6301, ATCC 700671, and ATCC 49619 and S. aureus ATCC 6538p and ATCC 29213 are erythromycin sensitive strains.

S. pneumoniae ATCC 49619 = test: microdilution assay MIC, S. pneumoniae ATCC 49619; assay type: cell-based, Streptococcus pneumoniae; details: S. pneumoniae ATCC 49619, erythromycin sensitive strain, average where multiple assays
Method: as §1

S. aureus ATCC 14154 = test: microdilution assay MIC, S. aureus ATCC 14154; assay type: cell-based, Staphylococcus aureus
Method: (§2) In Table B, in some instances multiple assays were performed for a compound/strain combination, in which case the reported MIC is the average.

[1] = tested on: S. pneumoniae ATCC 700676; test: microdilution assay MIC, S. pneumoniae ATCC 700676; assay type: cell-based, Streptococcus pneumoniae
Method: as §1

E. faecalis ATCC 51575 = test: microdilution assay MIC, E. faecalis ATCC 51575; assay type: cell-based, Enterococcus faecalis
Method: as §2

S. aureus ATCC 6538p = test: microdilution assay MIC, S. aureus ATCC 6538p; assay type: cell-based, Staphylococcus aureus; details: erythromycin sensitive strain, average where multiple assays
Method: as §1

[2] = tested on: S. pneumoniae ATCC 700905; test: microdilution assay MIC, S. pneumoniae ATCC 700905; assay type: cell-based, Streptococcus pneumoniae
Method: as §1

[3] = tested on: S. epidermidis ATCC 12228; test: microdilution assay MIC, S. epidermidis ATCC 12228; assay type: cell-based, Staphylococcus epidermidis
Method: as §1

S. pneumoniae ATCC 6301 = test: microdilution assay MIC, S. pneumoniae ATCC 6301; assay type: cell-based, Streptococcus pneumoniae; details: S. pneumoniae ATCC 6301, erythromycin sensitive strain, average where multiple assays
Method: as §1

[4] = tested on: S. pneumoniae ATCC 700906; test: microdilution assay MIC, S. pneumoniae ATCC 700906; assay type: cell-based, Streptococcus pneumoniae
Method: as §2

[5] = tested on: S. pneumoniae ATCC 700671; test: microdilution assay MIC, S. pneumoniae ATCC 700671; assay type: cell-based, Streptococcus pneumoniae; details: S. pneumoniae ATCC 700671, erythromycin sensitive strain, average where multiple assays
Method: as §1

[6] = tested on: S. pneumoniae ATCC 700677; test: microdilution assay MIC, S. pneumoniae ATCC 700677; assay type: cell-based, Streptococcus pneumoniae
Method: as §1

H. influenzae ATCC 49766 = test: microdilution assay MIC, H. influenzae ATCC 49766; assay type: cell-based, Haemophilus influenzae
Method: as §1

H. influenzae ATCC 9006 = test: microdilution assay MIC, H. influenzae ATCC 9006; assay type: cell-based, Haemophilus influenzae
Method: as §1

[7] = S. aureus ATCC 14154, erythromycin A resistant strain, average where multiple assays
[8] = S. pneumoniae ATCC 700676, erythromycin A resistant strain, average where multiple assays
[9] = S. pneumoniae ATCC 700905, erythromycin A resistant strain, average where multiple assays
[10] = S. pneumoniae ATCC 700906, erythromycin A resistant strain, average where multiple assays
[11] = S. pneumoniae ATCC 700677, erythromycin A resistant strain, average where multiple assays

Structure (SMILES)	MIC (S. aureus ATCC 29213) [µg/mL]	MIC (S. pneumoniae ATCC 49619) [µg/mL]	MIC (S. aureus ATCC 14154; [7]) [µg/mL]	MIC [1, 8] [µg/mL]	MIC (E. faecalis ATCC 51575; average where multiple assays) [µg/mL]	MIC (S. aureus ATCC 6538p) [µg/mL]	MIC [2, 9] [µg/mL]	MIC ([3]; average where multiple assays) [µg/mL]	MIC (S. pneumoniae ATCC 6301) [µg/mL]	MIC [4, 10] [µg/mL]	MIC [5] [µg/mL]	MIC [6, 11] [µg/mL]	MIC (H. influenzae ATCC 49766; average where multiple assays) [µg/mL]	MIC (H. influenzae ATCC 9006; average where multiple assays) [µg/mL]	further results
CCN(C)CCC1OC(=O)C(C)C(=O)C(C)C(OC2OC(C)CC(N(C)C)C2O)C(C)(OC)CC(C)C(=O)C(C)C2NC(=O)OC12C (centres unmarked) [Compound 101]	6.25	0.78	6.25	6.25	6.25	6.25	3.12	6.25	0.2	>12.5	0.39	>12.5	–	–	–
COC1(C)CC(C)C(=O)C(C)C2NC(=O)OC2(C)C(CCN(Cc2cccc(-c3ccco3)c2)Cc2cccc(-c3ccco3)c2)OC(=O)C(C)C(=O)C(C)C1OC1OC(C)CC(N(C)C)C1O (centres unmarked) [Compound 104]	6.25	>12.5	6.25	6.25	12.5	>12.5	>12.5	6.25	3.12	>12.5	3.12	6.25	>12.5	>12.5	–
COC1(C)CC(C)C(=O)C(C)C2NC(=O)OC2(C)C(CCNS(=O)(=O)c2cccc(-c3ccco3)c2)OC(=O)C(C)C(=O)C(C)C1OC1OC(C)CC(N(C)C)C1O (centres unmarked) [Compound 108]	0.025	0.025	0.049	0.025	0.025	0.025	0.025	0.025	0.025	0.049	0.025	0.025	>12.5	12.5	–
COC1(C)CC(C)C(=O)C(C)C2NC(=O)OC2(C)C(CCNS(=O)(=O)c2ccc3ccccc3c2)OC(=O)C(C)C(=O)C(C)C1OC1OC(C)CC(N(C)C)C1O (centres unmarked) [Compound 107]	0.025	0.01	1.56	0.01	0.025	0.01	0.01	0.025	0.01	3.12	0.01	0.01	12.5	12.5	–
COC1(C)CC(C)C(=O)C(C)C2NC(=O)OC2(C)C(CCNS(=O)(=O)c2cccc3cccnc23)OC(=O)C(C)C(=O)C(C)C1OC1OC(C)CC(N(C)C)C1O (centres unmarked) [Compound 105]	0.049	0.01	0.39	0.01	0.025	0.049	0.01	0.025	0.01	0.39	0.01	0.01	6.25	3.12	–
COC1(C)CC(C)C(=O)C(C)C2NC(=O)OC2(C)C(CCNS(=O)(=O)c2cccc3ccccc23)OC(=O)C(C)C(=O)C(C)C1OC1OC(C)CC(N(C)C)C1O (centres unmarked) [Compound 106]	0.025	0.01	3.12	0.01	0.025	0.01	0.01	0.025	0.01	12.5	0.01	0.01	6.25	6.25	–
COC1(C)CC(C)C(=O)C(C)C2NC(=O)OC2(C)C(CCN(C)CCc2cccc(-c3ccco3)c2)OC(=O)C(C)C(=O)C(C)C1OC1OC(C)CC(N(C)C)C1O (centres unmarked) [Compound 103]	0.39	0.049	0.39	0.049	12.5	0.098	0.049	0.049	0.049	>12.5	0.049	0.098	>12.5	>12.5	–
CC[C@H]1OC(=O)[C@H](C)C(=O)[C@H](C)[C@@H](O[C@@H]2O[C@H](C)C[C@H](N(C)C)[C@H]2O)[C@](C)(OC)C[C@@H](C)C(=O)[C@H](C)[C@H]2N(CCCCn3cnc(-c4cccnc4)c3)C(=O)O[C@]12C [Tel, telithromycin, reference compound]	–	–	–	–	–	–	–	–	–	–	–	–	–	–	MIC (H. influenzae ATCC 49766; Haemophilus influenzae, ATCC49766, average where multiple assays, read-out: MIC): 3.12 µg/mL; MIC (S. aureus ATCC 29213; Staphylococcus aureus, ATCC29213, read-out: MIC): 0.025 µg/mL; MIC (S. pneumoniae ATCC 49619; Streptococcus pneumoniae, ATCC49619, read-out: MIC): 0.049 µg/mL; MIC (H. influenzae ATCC 9006; Haemophilus influenzae, ATCC9006, average where multiple assays, read-out: MIC): 1.56 µg/mL; MIC (S. aureus ATCC 14154; Staphylococcus aureus, ATCC14154, read-out: MIC): > 12.5 µg/mL; MIC ([1]; Streptococcus pneumoniae, ATCC700676, read-out: MIC): 0.098 µg/mL; MIC (E. faecalis ATCC 51575; Enterococcus faecalis, ATCC51575, average where multiple assays, read-out: MIC): > 12.5 µg/mL; MIC (S. aureus ATCC 6538p; Staphylococcus aureus, ATCC6538P, read-out: MIC): 0.025 µg/mL; MIC ([2]; Streptococcus pneumoniae, ATCC700905, read-out: MIC): 0.025 µg/mL; MIC ([3]; Staphylococcus epidermidis, ATCC12228, average where multiple assays, read-out: MIC): 0.025 µg/mL; MIC (S. pneumoniae ATCC 6301; Streptococcus pneumoniae, ATCC6301, read-out: MIC): 0.025 µg/mL; MIC ([4]; Streptococcus pneumoniae, ATCC700906, read-out: MIC): 0.2 µg/mL; MIC ([5]; Streptococcus pneumoniae, ATCC700671, read-out: MIC): 0.025 µg/mL; MIC ([6]; Streptococcus pneumoniae, ATCC700677, read-out: MIC): 0.025 µg/mL
